Target: T1, histamine H4 receptor (Homo sapiens, UniProt Q9H3N8)
T1 construct: expressed in transfected cells; host or cells: HEK293SFM cells (membrane preparation)
Assay: Inhibition of histamine H4 receptor (Table A1; H4 membrane binding assay)
Conditions: for IC50: histamine H4 receptor, "> a" = exceeds experiment limit
Experimental: Recombinant HEK293SFM cells expressing human H1, H2, H3, H4 or mouse H4 were harvested (Packard Filtermate Harvester) in ice-cold Tris-HCl, (50 mM, pH 7.5, Sigma) with protease inhibitors (Roche) and homogenized with a Polytron homogenizer. The homogenate was centrifuged for 5 minutes at 1000 g to remove nuclei and unbroken cells. The supernatant was centrifuged at 50000 g for 30 minutes, and the resulting pellet was re-suspended in ice-cold Tris-HCl (50 mM, pH 7.5). […] Nonspecific binding was determined by inclusion of 1000× unlabeled ligands. The bound radioactivity was separated by filtration through polyethyleneimine-treated GF/B filters (Perkin Elmer). The filters were washed eight times with ice-cold Tris-HCl (50 mM, pH 7.5), and radioactivity retained on the filters was measured by liquid scintillation counting. The binding data were evaluated with Prism. […]

T1 sequence (Q9H3N8 whole entry): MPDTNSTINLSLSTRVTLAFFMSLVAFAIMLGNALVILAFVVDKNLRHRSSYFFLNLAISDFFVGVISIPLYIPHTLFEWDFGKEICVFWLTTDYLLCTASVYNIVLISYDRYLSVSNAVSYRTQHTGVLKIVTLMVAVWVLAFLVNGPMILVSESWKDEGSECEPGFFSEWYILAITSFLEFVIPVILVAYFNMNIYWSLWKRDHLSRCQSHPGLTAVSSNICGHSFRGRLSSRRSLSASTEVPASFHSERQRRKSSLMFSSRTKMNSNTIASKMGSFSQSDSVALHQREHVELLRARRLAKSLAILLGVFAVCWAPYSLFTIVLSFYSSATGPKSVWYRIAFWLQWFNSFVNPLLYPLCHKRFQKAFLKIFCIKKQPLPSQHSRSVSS

Compound	IC50	inhibition at 1 µM
CC(C#N)Cn1cc(-c2ccc3c(c2)CN(c2cc(N4CCN(C)CC4)nc(N)n2)C(C)C3)cn1 (single isomer, unassigned) [Example 101, 3-(4-{2-[2-Amino-6-(4-methylpiperazin-1-yl)pyrimidin-4-yl]-3-methyl-1,2,3,4-tetrahydroisoquinolin-7-yl}-1H-pyrazol-1-yl)-2-methylpropanenitrile]	34 nM	–
CNC(=O)c1cnc(-c2ccc3c(c2)CN(c2cc(N4CCN(C)CC4)nc(N)n2)C(C)C3)s1 (stereo not drawn) [Example 133, 2-{2-[2-amino-6-(4-methylpiperazin-1-yl)pyrimidin-4-yl]-3-methyl-1,2,3,4-tetrahydroisoquinolin-7-yl}-N-methyl-1,3-thiazole-5-carboxamide]	59 nM	–
CN1CCN(c2cc(N3CCc4ccc(-c5cnc(C#N)c(F)c5)cc4C3)nc(N)n2)CC1 [Example 7, 5-{2-[2-Amino-6-(4-methylpiperazin-1-yl)pyrimidin-4-yl]-1,2,3,4-tetrahydroisoquinolin-7-yl}-3-fluoropyridine-2-carbonitrile]	76 nM	–
CCNC(=O)N1CCC(c2ccc3c(c2)CN(c2cc(N4CCN(C)CC4)nc(N)n2)C(C)C3)CC1 (stereo not drawn) [Example 145, 4-{2-[2-Amino-6-(4-methylpiperazin-1-yl)pyrimidin-4-yl]-3-methyl-1,2,3,4-tetrahydroisoquinolin-7-yl}-N-ethylpiperidine-1-carboxamide]	36 nM	–
CN1CCN(c2cc(N3CCc4ccc(C(=O)NC5CCCC5)cc4C3)nc(N)n2)CC1 [Example 28, 2-[2-Amino-6-(4-methylpiperazin-1-yl)pyrimidin-4-yl]-N-cyclopentyl-1,2,3,4-tetrahydroisoquinoline-7-carboxamide]	754 nM	–
CN1CCN(c2cc(N3CCc4ccc(C(=O)N5Cc6ccccc6C5)cc4C3)nc(N)n2)CC1 [Example 26, 4-[7-(1,3-Dihydro-2H-isoindol-2-ylcarbonyl)-3,4-dihydroisoquinolin-2(1H)-yl]-6-(4-methylpiperazin-1-yl)pyrimidin-2-amine]	244 nM	–
CCn1ccc(-c2ccc3c(c2)CN(c2cc(N4CCN(C)CC4)nc(N)n2)C(C)C3)n1 (single isomer, unassigned) [Example 86B, 4-[7-(1-Ethyl-1H-pyrazol-3-yl)-3-methyl-3,4-dihydroisoquinolin-2(1H)-yl]-6-(4-methylpiperazin-1-yl)pyrimidin-2-amine]	231 nM	–
CC1Cc2ccc(-c3ccc(C(=O)NCCO)nc3)cc2CN1c1cc(N2CCN(C)CC2)nc(N)n1 (stereo not drawn) [Example 59, 5-{2-[2-Amino-6-(4-methylpiperazin-1-yl)pyrimidin-4-yl]-3-methyl-1,2,3,4-tetrahydroisoquinolin-7-yl}-N-(2-hydroxyethyl)pyridine-2-carboxamide]	54 nM	–
CC1Cc2ccc(-c3cnn(CC4CCCO4)c3)cc2CN1c1cc(N2CCN(C)CC2)nc(N)n1 (single isomer, unassigned) [Example 99B, 4-(4-Methylpiperazin-1-yl)-6-[3-methyl-7-[1-(tetrahydrofuran-2-ylmethyl)-1H-pyrazol-4-yl]-3,4-dihydroisoquinolin-2(1H)-yl]pyrimidin-2-amine]	172 nM	–
CC1Cc2ccc(-c3ccc(C(=O)N(C)C)nc3)cc2CN1c1cc(N2CCN(C)CC2)nc(N)n1 (single isomer, unassigned) [Example 50A, 5-(2-(2-amino-6-(4-methylpiperazin-1-yl)pyrimidin-4-yl)-3-methyl-1,2,3,4-tetrahydroisoquinolin-7-yl)-N,N-dimethylpicolinamide]	88.7 nM	–
CC1Cc2ccc(-c3ccnc(C(=O)N4CCC4)c3)cc2CN1c1cc(N2CCN(C)CC2)nc(N)n1 (single isomer, unassigned) [Example 62B, 4-[7-[2-(azetidin-1-ylcarbonyl)pyridin-4-yl]-3-methyl-3,4-dihydroisoquinolin-2(1H)-yl]-6-(4-methylpiperazin-1-yl)pyrimidin-2-amine]	49 nM	–
CC1Cc2ccc(C3CCN(C(=O)N(C)C)CC3)cc2CN1c1cc(N2CCN(C)CC2)nc(N)n1 (stereo not drawn) [Example 144, 4-{2-[2-Amino-6-(4-methylpiperazin-1-yl)pyrimidin-4-yl]-3-methyl-1,2,3,4-tetrahydroisoquinolin-7-yl}-N,N-dimethylpiperidine-1-carboxamide]	24 nM	–
CC1Cc2ccc(-c3cnn(C(C)CC#N)c3)cc2CN1c1cc(N2CCN(C)CC2)nc(N)n1 (single isomer, unassigned) [Example 103, 3-(4-{2-[2-Amino-6-(4-methylpiperazin-1-yl)pyrimidin-4-yl]-3-methyl-1,2,3,4-tetrahydroisoquinolin-7-yl}-1H-pyrazol-1-yl)butanenitrile]	24 nM	–
CC1Cc2ccc(-c3cnn(C4CCS(=O)(=O)C4)c3)cc2CN1c1cc(N2CCN(C)CC2)nc(N)n1 (single isomer, unassigned) [Example 98A, 4-[7-[1-(1,1-dioxidotetrahydro-3-thienyl)-1H-pyrazol-4-yl]-3-methyl-3,4-dihydroisoquinolin-2(1H)-yl]-6-(4-methylpiperazin-1-yl)pyrimidin-2-amine]	24 nM	–
CC1Cc2ccc(-c3cnn(C)c3)cc2CN1c1cc(N2CC[C@@H](N)C2)nc(N)n1 (stereo partly drawn) [Example 118, 4-[(3R)-3-Aminopyrrolidin-1-yl]-6-[3-methyl-7-(1-methyl-1H-pyrazol-4-yl)-3,4-dihydroisoquinolin-2(1H)-yl]pyrimidin-2-amine]	255 nM	–
CC1Cc2ccc(-c3cnn(CC4(C#N)CC4)c3)cc2CN1c1cc(N2CCN(C)CC2)nc(N)n1 (single isomer, unassigned) [Example 97B, 1-[(4-{2-[2-amino-6-(4-methylpiperazin-1-yl)pyrimidin-4-yl]-3-methyl-1,2,3,4-tetrahydroisoquinolin-7-yl}-1H-pyrazol-1-yl)methyl]cyclopropanecarbonitrile]	–	72%
CC1Cc2ccc(C3CCN(C(=O)CC4CCCC4)CC3)cc2CN1c1cc(N2CCN(C)CC2)nc(N)n1 (stereo not drawn) [Example 138, 4-[7-[1-(Cyclopentylacetyl)piperidin-4-yl]-3-methyl-3,4-dihydroisoquinolin-2(1H)-yl]-6-(4-methylpiperazin-1-yl)pyrimidin-2-amine]	64 nM	–
CN1CCN(c2cc(N3CCc4ccc(-c5ccc(C(=O)NCC(C)(C)O)nc5)cc4C3)nc(N)n2)CC1 [Example 19, 5-{2-[2-Amino-6-(4-methylpiperazin-1-yl)pyrimidin-4-yl]-1,2,3,4-tetrahydroisoquinolin-7-yl}-N-(2-hydroxy-2-methylpropyl)pyridine-2-carboxamide]	110 nM	–
CN1CCN(c2cc(N3CCc4ccc(N5CCC(O)(c6ccccc6)CC5)cc4C3)nc(N)n2)CC1 [Example 37, 1-{2-[2-Amino-6-(4-methylpiperazin-1-yl)pyrimidin-4-yl]-1,2,3,4-tetrahydroisoquinolin-7-yl}-4-phenylpiperidin-4-ol]	579 nM	–
CC1Cc2ccc(-c3ccn(CCC#N)n3)cc2CN1c1cc(N2CCN(C)CC2)nc(N)n1 (single isomer, unassigned) [Example 83A, 3-(3-{2-[2-Amino-6-(4-methylpiperazin-1-yl)pyrimidin-4-yl]-3-methyl-1,2,3,4-tetrahydroisoquinolin-7-yl}-1H-pyrazol-1-yl)propanenitrile]	33 nM	–
CCS(=O)(=O)N1CCC(c2ccc3c(c2)CN(c2cc(N4CCN(C)CC4)nc(N)n2)C(C)C3)CC1 (stereo not drawn) [Example 152, 4-[7-[1-(Ethylsulfonyl)piperidin-4-yl]-3-methyl-3,4-dihydroisoquinolin-2(1H)-yl]-6-(4-methylpiperazin-1-yl)pyrimidin-2-amine]	17.6 nM	–
CC1Cc2ccc(-c3cnc4[nH]cnc4c3)cc2CN1c1cc(N2CCN(C)CC2)nc(N)n1 (stereo not drawn) [Example 135, 4-[7-(3H-Imidazo[4,5-b]pyridin-6-yl)-3-methyl-3,4-dihydroisoquinolin-2(1H)-yl]-6-(4-methylpiperazin-1-yl)pyrimidin-2-amine]	48 nM	–
CC1Cc2ccc(-c3ccnc(C(=O)N(C)C)c3)cc2CN1c1cc(N2CCN(C)CC2)nc(N)n1 (single isomer, unassigned) [Example 61B, 4-{2-[2-amino-6-(4-methylpiperazin-1-yl)pyrimidin-4-yl]-3-methyl-1,2,3,4-tetrahydroisoquinolin-7-yl}-N,N-dimethylpyridine-2-carboxamide]	64 nM	–
CC1Cc2ccc(-c3ccnc(C(=O)N4CC[C@H](F)C4)c3)cc2CN1c1cc(N2CCN(C)CC2)nc(N)n1 (single isomer, unassigned) [Example 66B]	57 nM	–
CC1Cc2ccc(-c3cncc(C(=O)N4CC(O)C4)c3)cc2CN1c1cc(N2CCN(C)CC2)nc(N)n1 (single isomer, unassigned) [Example 75, 1-[(5-{2-[2-Amino-6-(4-methylpiperazin-1-yl)pyrimidin-4-yl]-3-methyl-1,2,3,4-tetrahydroisoquinolin-7-yl}pyridin-3-yl)carbonyl]azetidin-3-ol]	100 nM	–
CC1Cc2ccc(-c3ccnc(C(=O)N(C)CCN(C)C)c3)cc2CN1c1cc(N2CCN(C)CC2)nc(N)n1 (single isomer, unassigned) [Example 68B, 4-{2-[2-amino-6-(4-methylpiperazin-1-yl)pyrimidin-4-yl]-3-methyl-1,2,3,4-tetrahydroisoquinolin-7-yl}-N-[2-(dimethylamino)ethyl]-N-methylpyridine-2-carboxamide]	32 nM	–
CN1CCN(c2cc(N3CCc4ccc(C(=O)N(C)C)cc4C3)nc(N)n2)CC1 [Example 27, 2-[2-Amino-6-(4-methylpiperazin-1-yl)pyrimidin-4-yl]-N,N-dimethyl-1,2,3,4-tetrahydroisoquinoline-7-carboxamide]	670 nM	–
